pIC50: −log10 of the molar value.
Key:
[1] = biological target: T1, 2019-HR1P (derived from the HR1 region of 2019-nCoV) (Severe acute respiratory syndrome coronavirus 2, UniProt P0DTC2); assay: Circular dichroism spectroscopy of polypeptide mixed with 2019-HR1P; format: binding; details: 10 μM, phosphate buffer pH 7.2, 4° C.
SARS-CoV pseudovirus = details: 72 h
[2] = system: cell-cell fusion mediated by the S protein of 2019-nCoV; format: cell-based
2019-nCoV pseudovirus = details: for pIC50: 72 h
[3] = system: SARS-CoV-2 live virus (nCoV-SH01 strain); assay: Inhibition of SARS-CoV-2 live virus on human intestinal cell line CaCO2 (viral RNA in supernatant); format: cell-based; details: CaCO2 cells, 48 hours, read-out: half inhibitory concentration, SARS-CoV-2 live virus
WIV1-CoV pseudovirus = details: 72 h
[4] = biological target: T1, 2019-HR1P (derived from the HR1 region of 2019-nCoV); assay: Native PAGE (N-PAGE) of polypeptide mixed with 2019-HR1P; format: binding; details: 30 μM each, 37° C. for 30 minutes
Rs3367-CoV pseudovirus = details: 72 h
[5] = system: SARS-CoV-2 live virus (nCoV-SH01 strain); design: species or system transgenic human-ACE2 mice; details: in vivo
2019-nCoV live virus = details: for pIC50: 72 h; for inhibitory activity relative to EK1, 2019-nCoV live virus: fold higher than EK1

Compound | secondary structure of mixture with 2019-HR1P by circular dichroism [1] | pIC50 (SARS-CoV pseudovirus) | inhibitory effect on cell-cell fusion mediated by the S protein of 2019-nCoV (in words) [2] | pIC50 (2019-nCoV pseudovirus) | pIC50 [3] | pIC50 (WIV1-CoV pseudovirus) | complex formation with 2019-HR1P in N-PAGE [4] | pIC50 (Rs3367-CoV pseudovirus) | SARS-CoV-2 viral load in the intestine [5] | SARS-CoV-2 viral load in the lung [5] | pIC50 (2019-nCoV live virus) | inhibitory activity relative to EK1, 2019-nCoV live virus (2019-nCoV live virus) | SARS-CoV-2 viral titer in the intestine [5] | SARS-CoV-2 viral titer in the lung [5] | activity in pseudovirus inhibition experiments (in words) (2019-nCoV pseudovirus)
CC[C@H](C)[C@H](NC(=O)[C@H](C)NC(=O)[C@H](CCC(=O)O)NC(=O)[C@H](CCC(=O)O)NC(=O)[C@H](CC(C)C)NC(=O)[C@H](CCCCN)NC(=O)[C@H](CCCCN)NC(=O)[C@H](CCSC)NC(=O)[C@H](CCC(=O)O)NC(=O)[C@H](Cc1ccc(O)cc1)NC(=O)[C@H](CCC(=O)O)NC(=O)[C@H](CC(C)C)NC(=O)[C@H](CC(=O)O)NC(=O)[C@H](CC(C)C)NC(=O)[C@H](Cc1ccccc1)NC(=O)[C@@H](NC(=O)[C@@H](NC(=O)[C@H](CC(N)=O)NC(=O)[C@@H](NC(=O)[C@H](CCC(N)=O)NC(=O)[C@H](CC(=O)O)NC(=O)[C@H](CC(C)C)NC(=O)[C@@H](N)CO)[C@@H](C)CC)C(C)C)[C@@H](C)O)C(=O)N[C@@H](CCCCN)C(=O)N[C@@H](CCCCN)C(=O)N[C@@H](CC(C)C)C(=O)N[C@@H](CCC(=O)O)C(=O)N[C@@H](CCC(=O)O)C(=O)N[C@@H](CO)C(=O)N[C@@H](Cc1ccc(O)cc1)C(=O)N[C@H](C(=O)N[C@@H](CC(=O)O)C(=O)N[C@@H](CC(C)C)C(=O)N[C@@H](CCCCN)C(=O)N[C@@H](CCC(=O)O)C(=O)N[C@@H](CC(C)C)C(=O)O)[C@@H](C)CC [EK1, reference compound] | formed a 6-HB complex | 5.72 | very good inhibitory effect | 5.60 | 6.24 | 5.53 | formation of a six-helix bundle complex | 5.40 | significantly reduce | significantly reduce |  |  |  |  | 
CC[C@H](C)[C@H](NC(=O)[C@H](C)NC(=O)[C@H](CCC(=O)O)NC(=O)[C@H](CCC(=O)O)NC(=O)[C@H](CC(C)C)NC(=O)[C@H](CCCCN)NC(=O)[C@H](CCCCN)NC(=O)[C@H](CCSC)NC(=O)[C@H](CCC(=O)O)NC(=O)[C@H](Cc1ccc(O)cc1)NC(=O)[C@H](CCC(=O)O)NC(=O)[C@H](CC(C)C)NC(=O)[C@H](CC(=O)O)NC(=O)[C@H](CC(C)C)NC(=O)[C@H](Cc1ccccc1)NC(=O)[C@@H](NC(=O)[C@@H](NC(=O)[C@H](CC(N)=O)NC(=O)[C@@H](NC(=O)[C@H](CCC(N)=O)NC(=O)[C@H](CC(=O)O)NC(=O)[C@H](CC(C)C)NC(=O)[C@@H](N)CO)[C@@H](C)CC)C(C)C)[C@@H](C)O)C(=O)N[C@@H](CCCCN)C(=O)N[C@@H](CCCCN)C(=O)N[C@@H](CC(C)C)C(=O)N[C@@H](CCC(=O)O)C(=O)N[C@@H](CCC(=O)O)C(=O)N[C@@H](CO)C(=O)N[C@@H](Cc1ccc(O)cc1)C(=O)N[C@H](C(=O)N[C@@H](CC(=O)O)C(=O)N[C@@H](CC(C)C)C(=O)N[C@@H](CCCCN)C(=O)N[C@@H](CCC(=O)O)C(=O)N[C@@H](CC(C)C)C(=O)NCC(=O)N[C@@H](CO)C(=O)NCC(=O)N[C@@H](CO)C(=O)NCC(=O)NCCOCCOCCOCCOCCC(=O)N[C@@H](CSCC(=O)O[C@H]1CC[C@@]2(C)C(=CC[C@H]3[C@@H]4CC[C@H]([C@H](C)CCCC(C)C)[C@@]4(C)CC[C@@H]32)C1)C(=O)O)[C@@H](C)CC [EK1-chol] |  | 8.00 | very good inhibitory effect | 7.70 | 8.26 | 7.40 |  | 7.52 |  |  | 7.44 | 67 times | significantly reduce | significantly reduce | 
CCCCCCCCCCCCCCCC(=O)NCCCC[C@H](NC(=O)CCOCCOCCOCCOCCNC(=O)CNC(=O)[C@H](CO)NC(=O)CNC(=O)[C@H](CC(C)C)NC(=O)[C@H](CCC(=O)O)NC(=O)[C@H](CCCCN)NC(=O)[C@H](CC(C)C)NC(=O)[C@H](CC(=O)O)NC(=O)[C@@H](NC(=O)[C@H](Cc1ccc(O)cc1)NC(=O)[C@H](CO)NC(=O)[C@H](CCC(=O)O)NC(=O)[C@H](CCC(=O)O)NC(=O)[C@H](CC(C)C)NC(=O)[C@H](CCCCN)NC(=O)[C@H](CCCCN)NC(=O)[C@@H](NC(=O)[C@H](C)NC(=O)[C@H](CCC(=O)O)NC(=O)[C@H](CCC(=O)O)NC(=O)[C@H](CC(C)C)NC(=O)[C@H](CCCCN)NC(=O)[C@H](CCCCN)NC(=O)[C@H](CCSC)NC(=O)[C@H](CCC(=O)O)NC(=O)[C@H](Cc1ccc(O)cc1)NC(=O)[C@H](CCC(=O)O)NC(=O)[C@H](CC(C)C)NC(=O)[C@H](CC(=O)O)NC(=O)[C@H](CC(C)C)NC(=O)[C@H](Cc1ccccc1)NC(=O)[C@@H](NC(=O)[C@@H](NC(=O)[C@H](CC(N)=O)NC(=O)[C@@H](NC(=O)[C@H](CCC(N)=O)NC(=O)[C@H](CC(=O)O)NC(=O)[C@H](CC(C)C)NC(=O)[C@@H](N)CO)[C@@H](C)CC)C(C)C)[C@@H](C)O)[C@@H](C)CC)[C@@H](C)CC)C(=O)O [EK1-plam] |  | 6.77 | very good inhibitory effect | 6.44 |  | 7.00 |  | 6.89 |  |  | 6.36 | 5 times |  |  | 
ANQFNSAIGKIQDSLSSTASALGKLQDVVNQNAQALNTLVKQ (SEQ ID NO. 3) [2019-HR1P, reference compound] |  |  | no activity |  |  |  |  |  |  |  |  |  |  |  | no activity
